According to the supplement of paper PMC10307832:

Compound: C=CCNC1=C2C[C@@H](C)C[C@H](OC)[C@H](O)[C@@H](C)/C=C(\C)[C@H](OC(N)=O)[C@@H](OC)/C=C\C=C(/C)C(=O)NC(=CC1=O)C2=O [17-AAG]
Assay: relative viability (nuclei count vs DMSO), 5 days (fraction); higher = more cells survive
Summary of the method: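 Lung cancer cell lines in 1536-well plates were kept overnight at 37 °C, then pinned with five library-drug doses (not always all listed) spaced by √10 on vehicle-anchored plates. After 5 days without medium change, cells were fixed, permeabilised and Hoechst-stained in one step, imaged at 4×, and nuclei were counted with MetaXpress. Viability is treated-well nuclei divided by vehicle-well nuclei, taken as the median over plates. Plates passed only with control CV below 25% and at least one doubling.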

| Cell Line | relative viability (0.00128 µM) | relative viability (0.004048 µM) | relative viability (0.0128 µM) | relative viability (0.04048 µM) | relative viability (0.128 µM) |
| --- | --- | --- | --- | --- | --- |
| 201T | 0.953 | 0.976 | 0.936 | 0.425 | 0.316 |
| A549 | 0.948 | 0.86 | 0.115 | 0.0515 | 0.0401 |
| A-427 | 0.967 | 1.01 | 0.95 | 0.62 | 0.265 |
| ABC-1 | 0.916 | 0.978 | 1.09 | 0.892 | 0.708 |
| BEN | 1.01 | 1.1 | 1.11 | 0.829 | 0.36 |
| CAL-12T | 0.947 | 1.02 | 0.948 | 0.625 | 0.24 |
| COR-L23 | 0.987 | 1.02 | 1.01 | 0.668 | 0.147 |
| COR-L 105 | 0.917 | 0.966 | 1 | 0.488 | 0.547 |
| Calu-6 | 1.02 | 0.984 | 0.946 | 0.3 | 0.148 |
| ChaGo-K-1 | 0.961 | 0.966 | 0.877 | 0.463 | 0.307 |
| EBC-1 | 1.02 | 0.882 | 0.166 | 0.15 | 0.132 |
| EKVX | 1 | 1.02 | 1.05 | 0.261 | 0.229 |
| EMC-BAC-2 | 1.13 | 0.986 | 0.889 | 0.396 | 0.362 |
| EPLC-272H | 1.02 | 0.968 | 0.663 | 0.159 | 0.104 |
| H3255 | 0.995 | 0.973 | 0.948 | 0.313 | 0.243 |
| HARA | 0.952 | 1.12 | 1 | 0.474 | 0.183 |
| HCC-15 | 0.94 | 0.923 | 0.557 | 0.14 | 0.122 |
| HCC-44 | 1 | 0.976 | 0.992 | 0.278 | 0.19 |
| HCC-78 | 0.935 | 1.02 | 1.01 | 0.727 | 0.425 |
| HCC-366 | 1.02 | 1.04 | 0.49 | 0.0512 | 0.0477 |

| Cell Line | relative viability (0.00128 µM) | relative viability (0.004048 µM) | relative viability (0.0128 µM) | relative viability (0.04048 µM) | relative viability (0.128 µM) |
| --- | --- | --- | --- | --- | --- |
| HCC-827 | 1.05 | 0.997 | 1.02 |  | 0.77 |
| HOP-62 | 1.03 | 0.881 | 0.904 | 0.436 | 0.126 |
| IA-LM | 0.954 | 0.956 | 0.874 | 0.393 | 0.118 |
| LC-2-ad | 0.943 | 0.974 | 0.793 | 0.27 | 0.19 |
| LCLC-97TM1 | 0.905 | 0.974 | 0.768 | 0.677 | 0.123 |
| LCLC-103H | 1.02 | 1 | 0.957 | 1.04 | 1.07 |
| LK-2 | 1.17 | 1 | 0.816 | 0.519 | 0.159 |
| LOU-NH91 | 0.928 | 0.819 | 0.571 | 0.435 | 0.354 |
| LU99A | 0.909 | 0.867 | 0.627 | 0.369 | 0.169 |
| LXF-289 | 1.01 | 1 | 0.872 | 0.167 | 0.121 |
| NCI-H23 | 0.949 | 0.851 | 0.289 | 0.177 | 0.147 |
| NCI-H322M | 0.95 | 0.967 | 0.483 | 0.346 | 0.325 |
| NCI-H358 | 0.889 | 0.532 | 0.119 | 0.115 | 0.103 |
| NCI-H441 | 0.857 | 0.693 | 0.223 | 0.192 | 0.105 |
| NCI-H460 | 0.96 | 0.965 | 0.198 | 0.0341 | 0.0297 |
| NCI-H520 | 1.01 | 0.974 | 0.566 | 0.193 | 0.185 |
| NCI-H522 | 0.805 | 1.09 | 0.782 | 0.602 | 0.433 |
| NCI-H596 | 0.931 | 0.917 | 0.955 | 0.816 | 0.404 |
| NCI-H647 | 0.985 | 0.779 | 0.135 | 0.108 | 0.091 |
| NCI-H650 | 0.894 | 1.01 | 0.798 | 0.511 | 0.264 |
